Experiments:
[1] = Cytosolic incubation in the presence of PAPS (sulfation), human; assay type: in vitro ADME; settings: 100 μM, 37° C., 60 mins, with PAPS; human liver cytosol
Experimental: These pilot incubations (1.0 mL incubation volume) were conducted using a substrate concentration of 100 μM ERB-041 at 37° C. for 60 mins. Incubations were terminated by the addition of an equal volume of chilled acetonitrile. Reserved phase-HPLC was utilized for all metabolite analysis. To confirm the formation of glucuronide and sulfate conjugates of ERB-041 in pilot scale incubations, HPLC analysis was performed using an Agilent 1100 LC system equipped with a diode array detector (Agilent Technologies, Wilmington, Del.). […] Rat liver and human liver cytosol incubations produced similar profiles. […] Further confirmation of the identity of the isolated metabolites […] and M9 from the large-scale incubations was obtained using LC-MS analysis (ESI, negative ionization). In the large-scale incubation, approximately 23% of ERB-041 was converted to the two sulfate conjugates. Separation of the two sulfate metabolites was achieved using gradient solvent system C described supra.

Lewis rats [2] = assay: Lewis rat adjuvant-induced arthritis, treatment protocol: tarsal joint histology (synovitis, Mankin); assay type: in vivo; settings: 50 mg/kg, tarsal joints
Lewis rats [3] = assay: Lewis rat adjuvant-induced arthritis, treatment protocol: joint score (maximal score per day 12); assay type: in vivo; settings: s.c. daily, begun Day 8 after adjuvant
Lewis rats [4] = assay: Lewis rat adjuvant-induced arthritis, inhibition protocol: joint score (maximal score per day 12); assay type: in vivo

## C=Cc1cc(O)cc2nc(-c3ccc(O)c(F)c3)oc12 [Example 24, 2-(3-FLUORO-4-HYDROXYPH ENYL)-7-VI NYL-1,3-BENZOXAZOL-5-OL]
[1]
  Metabolites detected: two metabolites (M9A and M9) were detected
Lewis rats [2]
  Cartilage Cells (0-3), mean ± SD: 0.83 ± 0.75
  Cartilage Structure (0-6), mean ± SD: 1.58 ± 0.49
  Fibroplasia (0-3), mean ± SD: 0.42 ± 0.80
  Inflammatory Cells (0-3), mean ± SD: 1.33 ± 0.41
  Pannus (0-1), mean ± SD: 0.08 ± 0.20
  Saffranin-O/Fast Green Staining (0-4), mean ± SD: 1.25 ± 0.69
  Tidemark Integrity (0-1): 0
  Total Mankin Score (0-14), mean ± SD: 3.67 ± 1.86
  Total Synovitis Score (0-10), mean ± SD: 3.25 ± 1.54
Lewis rats [3]; table Day 1
  Joint inflammation score: 11.33
Lewis rats [3]; table Day 2
  Joint inflammation score: 11.15
Lewis rats [3]; table Day 3
  Joint inflammation score: 11.33
Lewis rats [3]; table Day 4
  Joint inflammation score: 9.50
Lewis rats [3]; table Day 5
  Joint inflammation score: 8.00
Lewis rats [3]; table Day 6
  Joint inflammation score: 7.00
Lewis rats [3]; table Day 7
  Joint inflammation score: 5.83
Lewis rats [3]; table Day 8
  Joint inflammation score: 4.83
Lewis rats [3]; table Day 9
  Joint inflammation score: 3.50
Lewis rats [3]; table Day 10
  Joint inflammation score: 3.83
Lewis rats [3]; table Day 11
  Joint inflammation score: 3.83
Lewis rats [3]; table Day 12
  Joint inflammation score: 3.83
Lewis rats [3]; table Day 13
  Joint inflammation score: 3.16
Lewis rats [3]; table Day 14
  Joint inflammation score: 3.16
Lewis rats [3]; table Day 15
  Joint inflammation score: 2.83
Lewis rats [3]; table Day 16
  Joint inflammation score: 2.83
Lewis rats [3]; table Day 17
  Joint inflammation score: 2.00
Lewis rats [4]; s.c. daily from Day 1, Day 1
  Joint inflammation score: 0.00
Lewis rats [4]; s.c. daily from Day 1, Day 2
  Joint inflammation score: 1.00
Lewis rats [4]; s.c. daily from Day 1, Day 3
  Joint inflammation score: 4.50
Lewis rats [4]; s.c. daily from Day 1, Day 4
  Joint inflammation score: 4.83
Lewis rats [4]; s.c. daily from Day 1, Day 5
  Joint inflammation score: 5.83
Lewis rats [4]; s.c. daily from Day 1, Day 6
  Joint inflammation score: 6.16
Lewis rats [4]; s.c. daily from Day 1, Day 7
  Joint inflammation score: 6.16
Lewis rats [4]; s.c. daily from Day 1, Day 8
  Joint inflammation score: 5.33
Lewis rats [4]; s.c. daily from Day 1, Day 9
  Joint inflammation score: 5.66
Lewis rats [4]; s.c. daily from Day 1, Day 10
  Joint inflammation score: 4.33
Lewis rats [4]; s.c. daily from Day 1, Day 11
  Joint inflammation score: 3.16
Lewis rats [4]; s.c. daily from Day 1, Day 12
  Joint inflammation score: 3.16
Lewis rats [4]; s.c. daily from Day 1, Day 13
  Joint inflammation score: 2.16
Lewis rats [4]; s.c. daily from Day 1, Day 14
  Joint inflammation score: 3.33
Lewis rats [4]; s.c. daily from Day 1, Day 15
  Joint inflammation score: 3.00
Lewis rats [4]; s.c. daily from Day 1, Day 16
  Joint inflammation score: 1.66
Lewis rats [4]; s.c. daily from Day 1, Day 17
  Joint inflammation score: 1.50
